Active and inactive are the calls of the source.
Tests used:
[1] = target: T1, Corticotropin-releasing factor receptor 2/Corticotropin-releasing factor-binding protein (Homo sapiens, UniProt P24387+Q13324); assay: Dose Response confirmation of uHTS hits for small molecule antagonists of the CRF-binding protein and CRF-R2 receptor complex.; type: functional; conditions: read-out: IC50_Mean
T1 sequence (Q13324 whole entry): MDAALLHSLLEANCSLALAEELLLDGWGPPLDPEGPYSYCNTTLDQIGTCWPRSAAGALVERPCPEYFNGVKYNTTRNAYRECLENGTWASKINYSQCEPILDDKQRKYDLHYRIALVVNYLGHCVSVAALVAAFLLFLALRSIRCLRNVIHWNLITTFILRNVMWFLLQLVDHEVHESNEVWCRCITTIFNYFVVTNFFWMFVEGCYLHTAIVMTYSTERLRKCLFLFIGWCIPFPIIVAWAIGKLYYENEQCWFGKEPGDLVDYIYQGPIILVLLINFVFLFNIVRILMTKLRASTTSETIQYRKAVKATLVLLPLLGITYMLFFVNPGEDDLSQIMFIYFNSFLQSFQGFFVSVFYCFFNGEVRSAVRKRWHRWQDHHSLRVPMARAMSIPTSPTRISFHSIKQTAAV
T1 sequence (P24387 whole entry): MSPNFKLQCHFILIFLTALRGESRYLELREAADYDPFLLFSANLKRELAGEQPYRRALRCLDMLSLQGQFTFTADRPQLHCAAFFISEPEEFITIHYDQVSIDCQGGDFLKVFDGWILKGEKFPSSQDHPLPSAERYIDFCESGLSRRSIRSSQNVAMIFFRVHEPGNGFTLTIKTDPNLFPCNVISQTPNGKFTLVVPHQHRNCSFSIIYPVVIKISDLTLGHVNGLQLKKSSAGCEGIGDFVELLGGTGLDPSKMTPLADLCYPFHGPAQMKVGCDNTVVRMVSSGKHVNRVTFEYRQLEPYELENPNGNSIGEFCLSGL

[2] = target: T1, Corticotropin-releasing factor receptor 2/Corticotropin-releasing factor-binding protein; assay: activators of CRF receptor 2 with binding protein – uHTS hits, confirmation (AID 602473); type: functional; conditions: read-out: EC50_Mean
[3] = target: T2, Heat shock factor protein 1 (Mus musculus, UniProt P38532); assay: HSF1 potentiators in luciferase reporter cells, confirmation, cell-based, NIH3T3, luminescence, dose retest (AID 435004); type: functional;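 also: stress induced by proteasome inhibitor MG132 added 30 min after compound; luciferase reporter driven by HSF1 response element in NIH3T3 cells; actives raise luminescence as potentiators of the MG132 stress response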
T2 sequence (P38532 whole entry): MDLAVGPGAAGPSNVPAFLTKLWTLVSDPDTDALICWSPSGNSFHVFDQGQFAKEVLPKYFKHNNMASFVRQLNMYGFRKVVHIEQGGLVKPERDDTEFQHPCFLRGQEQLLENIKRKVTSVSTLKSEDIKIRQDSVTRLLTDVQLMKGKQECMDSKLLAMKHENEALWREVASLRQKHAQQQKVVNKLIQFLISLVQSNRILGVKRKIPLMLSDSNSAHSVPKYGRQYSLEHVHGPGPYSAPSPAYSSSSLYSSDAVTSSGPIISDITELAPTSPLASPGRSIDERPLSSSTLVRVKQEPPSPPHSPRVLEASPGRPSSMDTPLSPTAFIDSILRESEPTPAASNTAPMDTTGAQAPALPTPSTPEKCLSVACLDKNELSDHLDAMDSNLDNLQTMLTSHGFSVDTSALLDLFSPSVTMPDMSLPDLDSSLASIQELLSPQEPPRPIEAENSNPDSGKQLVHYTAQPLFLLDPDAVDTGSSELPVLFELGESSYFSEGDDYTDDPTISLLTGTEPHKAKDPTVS

[4] = tested on: BJ; assay: cytotoxicity toward BJ-TERT fibroblasts, dose response, cell-based, RAS-independent, luminescence (AID 1933); type: functional; conditions: Homo sapiens
[5] = cytotoxicity toward DRD oncogenic fibroblasts, dose response, cell-based, non-viral oncogenic, luminescence (AID 1934); type: functional; conditions: Homo sapiens
[6] = tested on: BJ; assay: cytotoxicity toward BJ-TERT-LT-ST fibroblasts, dose response, cell-based, RAS-independent, luminescence (AID 1935); type: functional; conditions: Homo sapiens;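 also: BJ fibroblasts immortalized with TERT plus LT and ST oncogenes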
[7] = tested on: BJ; assay: cells; type: functional, cell-based; conditions: Homo sapiens
[8] = target: T3, Polyadenylate-binding protein 1 (Homo sapiens, UniProt P11940); assay: PABP1 MLLE–PAM2 binding inhibitor potency, dose response, biochemical, fluorescence polarization, FITC-PAM2 peptide (AID 602259); type: functional; conditions: read-out: IC50_Mean
T3 sequence (P11940 whole entry): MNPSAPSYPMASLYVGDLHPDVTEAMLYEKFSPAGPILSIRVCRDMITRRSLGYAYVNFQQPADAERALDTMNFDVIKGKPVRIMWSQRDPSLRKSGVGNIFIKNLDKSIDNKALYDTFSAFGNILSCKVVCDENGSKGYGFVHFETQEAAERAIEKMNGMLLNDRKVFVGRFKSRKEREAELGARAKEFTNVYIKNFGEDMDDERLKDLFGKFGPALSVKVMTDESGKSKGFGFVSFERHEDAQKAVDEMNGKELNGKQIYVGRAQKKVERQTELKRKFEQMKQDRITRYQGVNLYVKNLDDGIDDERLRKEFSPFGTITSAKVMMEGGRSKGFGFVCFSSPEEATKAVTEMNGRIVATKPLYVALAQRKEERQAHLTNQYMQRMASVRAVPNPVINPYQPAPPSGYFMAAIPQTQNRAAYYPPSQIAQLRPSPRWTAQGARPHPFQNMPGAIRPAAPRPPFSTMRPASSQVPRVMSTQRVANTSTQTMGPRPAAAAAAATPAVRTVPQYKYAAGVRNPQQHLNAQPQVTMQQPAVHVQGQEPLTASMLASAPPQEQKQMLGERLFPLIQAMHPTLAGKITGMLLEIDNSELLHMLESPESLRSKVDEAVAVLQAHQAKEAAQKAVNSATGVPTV

[9] = target: T3, Polyadenylate-binding protein 1; assay: PABP1 MLLE–PAM2 interaction inhibitors, dose response, miRNA deadenylation inhibitor project, biochemical, fluorescence polarization, Cy5-PAM2 peptide, secondary (AID 602260); type: functional; conditions: read-out: IC50_Mean
[10] = target: T4, Calpain-2 catalytic subunit (Sus scrofa, UniProt P43367); assay: pig calpain II inhibitor potency, dose response, biochemical, fluorogenic peptide substrate (AID 1420); type: functional
T4 sequence (P43367 whole entry): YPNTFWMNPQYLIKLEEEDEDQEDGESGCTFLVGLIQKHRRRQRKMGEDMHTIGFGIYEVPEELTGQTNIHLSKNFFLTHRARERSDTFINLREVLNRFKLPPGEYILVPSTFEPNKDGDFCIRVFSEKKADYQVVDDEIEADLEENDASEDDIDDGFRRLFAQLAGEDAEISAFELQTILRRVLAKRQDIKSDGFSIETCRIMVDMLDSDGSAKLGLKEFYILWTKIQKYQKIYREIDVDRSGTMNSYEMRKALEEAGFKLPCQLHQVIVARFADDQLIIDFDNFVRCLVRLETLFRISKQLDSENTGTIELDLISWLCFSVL

[11] = intracellular Trypanosoma cruzi inhibitors in host cells – cell-based, plate reader, cherry-pick samples, set 3, dose response (AID 651818); type: functional;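 also: compounds incubated with infected cells for about four days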
[12] = target: T5, Carboxy-terminal domain RNA polymerase II polypeptide A small phosphatase 1 (Homo sapiens, UniProt Q9GZU7); assay: inhibitors of CTDSP1, concentration-response testing, biochemical assay, absorbance-based, actives from ultra-high-throughput screening (AID 540297); type: functional
T5 sequence (Q9GZU7 whole entry): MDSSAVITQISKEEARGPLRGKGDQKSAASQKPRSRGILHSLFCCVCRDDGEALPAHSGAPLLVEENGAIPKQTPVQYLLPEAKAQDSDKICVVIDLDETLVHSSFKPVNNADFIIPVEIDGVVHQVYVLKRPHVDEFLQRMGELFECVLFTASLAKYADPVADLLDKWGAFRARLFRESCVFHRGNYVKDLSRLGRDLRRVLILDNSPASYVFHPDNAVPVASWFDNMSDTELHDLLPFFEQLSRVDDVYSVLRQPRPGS

[13] = target: T2, Heat shock factor protein 1; assay: inhibition of MG132-induced HSE-luciferase signal, confirmation, cell-based, NIH3T3, luminescence, dose retest (AID 2382); type: functional;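 also: NIH3T3 fibroblasts with HSF1-driven luciferase reporter stressed by proteasome inhibitor MG132; luminescence from HSF1-driven luciferase expression after 8 hours of MG132 stress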
[14] = THP-1 cell cytotoxicity, dose response, cytotoxicity control for non-replicating M. tuberculosis project (AID 489025); type: functional
[15] = microbe, parasite or virus in culture; type: functional; conditions: Mycobacterium tuberculosis
[16] = inhibitors of SNCA 5'UTR-driven reporter translation, confirmation, H4 neuroglioma cells, luminescence (AID 1988); type: functional, cell-based
[17] = Luminescence Cell-Based Dose Response HTS to Identify Inhibitors of 5'UTR Stem-Loop Driven Prion Protein mRNA Translation in H4 Neuroglioblastoma Cells. [Related pubchem assays: 1827 (Project Summary), 1813 (Primary HTS)]; type: functional
[18] = inhibitors of firefly luciferase expression or activity, dose response, H4 neuroglioma cells, luminescence (AID 1990); type: functional, cell-based
[19] = target: Genome polyprotein (dengue virus type 2, UniProt P29990); assay: Dengue-2 NS5 methyltransferase inhibitors, primary screen, biochemical, confirmation dose response (AID 588689); type: functional
Sequence of Genome polyprotein (P29990 2492-3391 limits assumed): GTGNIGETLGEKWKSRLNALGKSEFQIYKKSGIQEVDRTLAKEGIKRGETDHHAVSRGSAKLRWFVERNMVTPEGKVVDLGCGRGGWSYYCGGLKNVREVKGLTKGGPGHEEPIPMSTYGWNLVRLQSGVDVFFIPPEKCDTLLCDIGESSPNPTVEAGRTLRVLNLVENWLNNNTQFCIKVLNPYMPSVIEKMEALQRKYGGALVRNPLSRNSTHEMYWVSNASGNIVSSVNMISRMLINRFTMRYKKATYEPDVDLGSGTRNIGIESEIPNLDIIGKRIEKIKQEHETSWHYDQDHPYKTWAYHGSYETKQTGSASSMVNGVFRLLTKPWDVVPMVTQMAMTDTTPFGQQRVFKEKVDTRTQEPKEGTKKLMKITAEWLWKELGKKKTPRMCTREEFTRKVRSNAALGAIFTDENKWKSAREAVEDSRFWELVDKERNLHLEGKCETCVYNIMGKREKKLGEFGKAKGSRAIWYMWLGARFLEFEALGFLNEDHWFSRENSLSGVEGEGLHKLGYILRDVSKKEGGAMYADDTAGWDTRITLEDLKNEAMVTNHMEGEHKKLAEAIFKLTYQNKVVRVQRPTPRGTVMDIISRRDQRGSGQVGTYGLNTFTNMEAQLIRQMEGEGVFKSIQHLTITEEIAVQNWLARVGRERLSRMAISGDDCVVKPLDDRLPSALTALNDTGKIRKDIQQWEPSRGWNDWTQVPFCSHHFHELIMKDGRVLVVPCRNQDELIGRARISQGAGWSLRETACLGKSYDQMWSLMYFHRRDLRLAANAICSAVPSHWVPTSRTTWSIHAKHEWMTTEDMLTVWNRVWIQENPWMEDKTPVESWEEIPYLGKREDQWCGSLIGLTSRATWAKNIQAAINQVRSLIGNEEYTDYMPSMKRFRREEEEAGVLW

[20] = C. albicans growth with fluconazole, confirmation, fluorescence, retest (AID 2467); type: functional, cell-based
[21] = NIH-3T3 fibroblast cytotoxicity, dose response, cytotoxicity control, cell-based, fluorescence, Alamar Blue, secondary assay (AID 2327); type: functional;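 also: NIH-3T3 mouse fibroblasts cultured with fluconazole at 8 µg/mL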

COC(CNc1ncnc2c1cnn2C)OC
IC50 [1]: > 47.1 µM (inactive)
EC50 [2]: > 53 µM (inactive)

COc1ccc(CCN2C(=O)C3C(C2=O)C2C=CC3C23CC3)cc1OC (stereo not drawn)
EC50 [3]: > 260 µM (inactive)

Cc1ccsc1C(=O)N/N=C/c1ccc2c(c1)OCO2
EC50 [4]: 15.4 µM (active)
EC50 [5]: 9.95 µM (inconclusive)
EC50 [6]: > 150 µM (inconclusive)
EC50 [7]: 11.6 µM (inconclusive)

Cc1n[nH]c2c(=S)[nH]c(=O)[nH]c12
IC50 [8]: > 66 µM (inactive)
IC50 [9]: > 66 µM (inactive)

CCOC(=O)NC(C(F)(F)F)(C(F)(F)F)P(=O)(c1ccccc1)c1ccccc1
IC50 [10]: > 50 µM (not active)

COc1ccc(S(=O)(=O)N(C)C[C@@H]2OCCCC[C@@H](C)Oc3ccc(NC(=O)Nc4ccc(C(F)(F)F)cc4)cc3C(=O)N([C@H](C)CO)C[C@@H]2C)cc1
AC50 [11]: 5.92 µM (active)

Cc1ccc(-n2nc(-c3ccco3)cc2C(=O)O)cc1
IC50 [12]: 3.82 µM (active)

CCOC(=O)C1C(C)=CC(=O)CC1c1ccco1 (stereo not drawn)
IC50 [1]: > 47.1 µM (inactive)
EC50 [2]: > 53 µM (inactive)

CN(C(=O)COC(=O)c1cnc(Cl)c(Cl)c1)C1CCS(=O)(=O)C1 (stereo not drawn)
IC50 [10]: 3.14 µM (not active)

CCOC(=O)c1c(N)sc2c1CCS(=O)(=O)C2
IC50 [8]: > 66 µM (inactive)
IC50 [9]: > 66 µM (inactive)

O=C(Oc1ccc(/C=N/NC(=O)c2ccccc2O)cc1)c1ccccc1
IC50 [12]: 8.03 µM (active)

CC(C)(C)C(=O)Nc1c2c(nn1-c1ccc(F)cc1)CSC2
IC50 [8]: > 66 µM (inactive)
IC50 [9]: > 66 µM (inactive)

O=C(CSc1nncc2ccccc12)N1CCOCC1
IC50 [8]: > 66 µM (inactive)
IC50 [9]: > 66 µM (inactive)

C[C@@H]1CN([C@H](C)CO)C(=O)Cc2cc(NC(=O)C3CCCCC3)ccc2O[C@H]1CN(C)Cc1ccc(Oc2ccccc2)cc1
AC50 [11]: 2.45 µM (active)

COc1cccc(NC(=O)CC2SC(Nc3ccccc3)=NC2=O)c1 (stereo not drawn)
IC50 [10]: > 50 µM (not active)

CC1=C(/C=C/C(=O)O)C(C)(C)CCC1
EC50 [3]: > 260 µM (inactive)

CCOC(=O)CSc1nc2c(c(=O)[nH]c(=O)n2C)n1C/C=C(/C)Cl
IC50 [8]: > 66 µM (inactive)
IC50 [9]: > 66 µM (inactive)

CN(C)c1ccc(C(=O)c2ccccc2C(=O)O)cc1[N+](=O)[O-]
EC50 [4]: > 150 µM (not active)
EC50 [5]: 102 µM (active)
EC50 [6]: > 150 µM (not active)
EC50 [7]: > 150 µM (not active)

COc1cc(Br)cc(CNc2ccc(F)c([N+](=O)[O-])c2)c1O
IC50 [10]: 2.79 µM (active)

CN(CC1CCOCC1)C(=O)CC1C(=O)NCCN1Cc1ccc(Cl)c(F)c1 (stereo not drawn)
IC50 [1]: > 47.1 µM (inactive)
EC50 [2]: > 53 µM (inactive)

O=C(Nc1cccc(Cl)c1)N1CCC(CO)(CCOc2ccccc2)CC1
EC50 [3]: 45 µM (active)

COc1ccc(C(=O)NC(=S)Nc2cccc(NC(=O)c3ccco3)c2)cc1[N+](=O)[O-]
IC50 [8]: > 66 µM (inactive)
IC50 [9]: > 66 µM (inactive)

CCCn1c(O)c(N=NC(=O)c2ccco2)c2ccccc21
EC50 [13]: > 195 µM (not active)
CC50 [14]: > 40 µM (active)
CC50 [15]: > 40 µM (active)

CC1(C)OC(=O)C(=Cc2ccc(-c3ccc(Cl)c(C(=O)O)c3)o2)C(=O)O1
IC50 [12]: 4.62 µM (active)

CCCN1C(=O)c2ccccc2NC1c1ccc(Cl)c(Cl)c1 (stereo not drawn)
EC50 [16]: 38.8 µM (active)
EC50 [3]: 59.6 µM (active)
EC50 [17]: > 120 µM (not active)
EC50 [18]: 16 µM (active)

CC(SC1=NCCS1)C(=O)Nc1nnc(-c2ccc(Br)cc2)s1 (stereo not drawn)
IC50 [1]: > 47.1 µM (inactive)
EC50 [2]: > 53 µM (inactive)

O=C1CC(SC(=S)C2CCCC2=O)C(=O)N1 (stereo not drawn)
IC50 [8]: > 66 µM (inactive)
IC50 [9]: > 66 µM (inactive)
IC50 [19]: 45.4 µM (active)

CCN(c1ccccc1)S(=O)(=O)c1ccc(NC(=O)c2ccco2)cc1
IC50 [1]: > 47.1 µM (inactive)
EC50 [2]: > 53 µM (inactive)

Cc1csc2ncnc(N3CCN(C(=O)Nc4ccc(OC(F)(F)F)cc4)CC3)c12
IC50 [10]: 6.79 µM (not active)

COc1ccc(NC(=O)CCCC2CCCCC2)cc1S(=O)(=O)N1CCCCC1
IC50 [1]: > 47.1 µM (inactive)
EC50 [2]: > 53 µM (inactive)

C[C@H]1CN([C@@H](C)CO)C(=O)Cc2cc(NC(=O)CCCCCC(=O)Nc3ccccc3N)ccc2O[C@@H]1CN(C)Cc1ccc(C(F)(F)F)cc1
AC50 [11]: 5.01 µM (active)

CC(=O)Nc1ccccc1/C=C/c1ccc2c(C)cc(C)c(O)c2n1
EC50 [20]: > 38 µM (not active)
EC50 [21]: 31.3 µM (active)
IC50 [10]: 10.9 µM (not active)

C/C(=N\Nc1cc(C)nc(-c2ccccc2)n1)c1cccc([N+](=O)[O-])c1
IC50 [1]: > 47.1 µM (inactive)
EC50 [2]: > 53 µM (inactive)

C[C@H](CO)N1C[C@H](C)[C@H](CN(C)Cc2ccc(Oc3ccccc3)cc2)Oc2c(NC(=O)c3cnccn3)cccc2C1=O
AC50 [11]: 5.22 µM (active)

C[C@H](CO)N1C[C@H](C)[C@H](CN(C)Cc2ccc(C(F)(F)F)cc2)Oc2ccc(NC(=O)Nc3cccc4ccccc34)cc2C1=O
AC50 [11]: 2.81 µM (active)

C[C@@H]1CN([C@H](C)CO)C(=O)c2cccc(NC(=O)Nc3ccc(C(F)(F)F)cc3)c2O[C@H]1CN(C)C(=O)Nc1ccc2c(c1)OCO2
AC50 [11]: 6.12 µM (active)

Cc1sc2nc(C)n(/N=C/c3ccc(O)cc3O)c(=O)c2c1C
EC50 [3]: > 260 µM (inactive)

COc1ccc(C2=NN=C(c3ccco3)Nc3ccc(F)cc32)cc1
IC50 [1]: > 47.1 µM (inactive)
EC50 [2]: > 53 µM (inactive)

C[C@@H]1CCCCO[C@@H](CN(C)C(=O)Nc2ccc(C(F)(F)F)cc2)[C@@H](C)CN([C@H](C)CO)C(=O)c2cc(NS(=O)(=O)c3ccc(F)cc3)ccc2O1
AC50 [11]: 1.85 µM (active)

Reference: ChEMBL document CHEMBL1201862, “PubChem BioAssay data set” (2004)
